Laboratory results taken from the supplement of paper PMC10307832.

Columns and labels:
Assay in all cases: relative viability (nuclei count vs DMSO), 5 days (fraction); higher = more cells survive
XMD14-99 + Tozasertib = compound: CN1CCN(CC1)C2=CC(=C(C=C2)NC3=NC(=C(S3)C(=O)C4=C(C=CC=C4Cl)Cl)N)OC [XMD14-99] + Cc1cc(Nc2cc(N3CCN(C)CC3)nc(Sc3ccc(NC(=O)C4CC4)cc3)n2)n[nH]1 [Tozasertib] (partner 0.1 µM)
Summary of the method: (§1)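 Nuclei were stained with Hoechst during a one-step fixation (final 0.05% Triton X-100, 1% formaldehyde, 1 ug/ml Hoechst) carried out 5 days after dosing, then counted on 4× images. The cells, lung cancer lines in 1536-well plates, had been dosed by pin tool the day after seeding with one drug alone or a fixed anchor-drug dose plus five library-drug doses (not always all listed) in √10 steps. Relative viability is the nuclei count in treated wells divided by that in vehicle wells, and each value is the median of duplicate plates.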

AZD1208 + Navitoclax = compound: N[C@@H]1CCCN(c2c(/C=C3\SC(=O)NC3=O)cccc2-c2ccccc2)C1 [AZD1208] + CC1(C)CCC(c2ccc(Cl)cc2)=C(CN2CCN(c3ccc(C(=O)NS(=O)(=O)c4ccc(N[C@H](CCN5CCOCC5)CSc5ccccc5)c(S(=O)(=O)C(F)(F)F)c4)cc3)CC2)C1 [Navitoclax] (partner 0.5 µM)
Summary of the method: as §1

AZD1208 + Crizotinib = compound: N[C@@H]1CCCN(c2c(/C=C3\SC(=O)NC3=O)cccc2-c2ccccc2)C1 [AZD1208] + C[C@@H](Oc1cc(-c2cnn(C3CCNCC3)c2)cnc1N)c1c(Cl)ccc(F)c1Cl [Crizotinib] (partner 1 µM)
Summary of the method: as §1

AZD1208 + Pemetrexed = compound: N[C@@H]1CCCN(c2c(/C=C3\SC(=O)NC3=O)cccc2-c2ccccc2)C1 [AZD1208] + Nc1nc2[nH]cc(CCc3ccc(C(=O)N[C@@H](CCC(=O)O)C(=O)O)cc3)c2c(=O)[nH]1 [Pemetrexed] (partner 0.2 µM)
Summary of the method: as §1

| Cell Line | relative viability (XMD14-99 + Tozasertib; first compound 0.08 µM) | relative viability (XMD14-99 + Tozasertib; first compound 0.8 µM) | relative viability (XMD14-99 + Tozasertib; first compound 2.53 µM) | relative viability (XMD14-99 + Tozasertib; first compound 8 µM) | relative viability (AZD1208 + Navitoclax; first compound 0.08 µM) | relative viability (AZD1208 + Navitoclax; first compound 0.253 µM) | relative viability (AZD1208 + Navitoclax; first compound 0.8 µM) | relative viability (AZD1208 + Navitoclax; first compound 2.53 µM) | relative viability (AZD1208 + Navitoclax; first compound 8 µM) | relative viability (AZD1208 + Crizotinib; first compound 0.08 µM) | relative viability (AZD1208 + Crizotinib; first compound 0.253 µM) | relative viability (AZD1208 + Crizotinib; first compound 0.8 µM) | relative viability (AZD1208 + Crizotinib; first compound 2.53 µM) | relative viability (AZD1208 + Crizotinib; first compound 8 µM) | relative viability (AZD1208 + Pemetrexed; first compound 0.08 µM) | relative viability (AZD1208 + Pemetrexed; first compound 0.253 µM) | relative viability (AZD1208 + Pemetrexed; first compound 0.8 µM) | relative viability (AZD1208 + Pemetrexed; first compound 2.53 µM) | relative viability (AZD1208 + Pemetrexed; first compound 8 µM) |
| --- | --- | --- | --- | --- | --- | --- | --- | --- | --- | --- | --- | --- | --- | --- | --- | --- | --- | --- | --- |
| BEN | 0.478 | 0.471 | 0.5 | 0.428 | 0.0677 | 0.0668 | 0.0589 | 0.0576 | 0.125 | 0.729 | 0.825 | 0.611 | 0.639 | 0.402 | 0.877 | 0.525 | 0.568 | 0.612 | 0.558 |
| NCI-H1666 | 0.61 | 0.582 | 0.498 | 0.537 | 0.792 | 0.802 | 0.706 | 0.801 | 0.942 | 1.06 | 0.934 | 0.837 | 0.905 | 1.03 | 0.826 | 0.874 | 0.792 | 0.823 | 0.896 |
| LC-2-ad | 0.399 | 0.481 | 0.484 | 0.418 | 0.36 | 0.356 | 0.331 | 0.397 | 0.489 | 0.488 | 0.401 | 0.421 | 0.383 | 0.392 | 0.246 | 0.278 | 0.269 | 0.246 | 0.272 |
| SW 1573 | 0.168 | 0.286 | 0.198 | 0.21 | 0.896 | 0.948 | 0.765 | 0.995 | 0.717 | 0.686 | 0.674 | 0.686 | 0.607 | 0.591 | 0.782 | 0.748 | 0.717 | 0.646 | 0.749 |
| ChaGo-K-1 | 0.217 | 0.199 | 0.208 | 0.226 | 1.16 | 1.05 | 1.09 | 0.834 | 0.785 | 1.1 | 1.28 | 0.99 | 1.16 | 0.9 | 0.269 | 0.261 | 0.293 | 0.261 | 0.25 |
| COR-L 105 | 0.295 | 0.426 | 0.33 | 0.328 | 0.679 | 0.745 | 0.555 | 1.13 | 0.682 | 0.806 | 0.766 | 0.717 | 0.881 | 0.68 | 1.1 | 0.982 | 1.01 | 1.2 | 1.08 |
| NCI-H1975 | 0.693 | 0.733 | 0.656 | 0.281 | 1.19 | 1.05 | 1.14 | 1.01 | 1.09 | 0.925 | 1.03 | 0.991 | 0.933 | 0.915 | 0.288 | 0.295 | 0.282 | 0.286 | 0.327 |
| NCI-H2009 | 0.683 | 0.617 | 0.541 | 0.399 | 1.2 | 1.14 | 1.12 | 1.21 | 1.15 | 1.07 | 1.14 | 0.972 | 1.06 | 0.979 | 1.01 | 1.03 | 0.917 | 1.11 | 1.06 |
